{"source": "paper PMC8584303", "about": "(International Journal of Molecular Sciences, 2021)", "molecules": {"B1": {"name": "LdGSTu1 (Leptinotarsa decemlineata) (protein)", "chain": "MPITLYSVSDGPPSLAVRQALEYLGLEHKLVNVDFGIGEHMTEEFAQKNPQKEIPVLDDNGFLLGESNAILQYLAERYGKDDTIYPKDPMARAVVNHRLCFNLSTYYRYISEYTLAPMFFDYQRTPLGLKKTHIALDNFNTYLKLLGKKYAAGETVTIADFQLVTATMCLEAINFDISPWPLVKNWYDTYKLEHPTLWKIVEEGMKELEAFEKNPPDLSHMDHPIHPVRK", "notes": "full-length LdGSTu1"}}, "key": {"[1]": {"target": "T1, LdGSTu1 (Leptinotarsa decemlineata, UniProt A0A1P8PEY0)", "T1 construct": "full-length LdGSTu1", "T1 sequence (A0A1P8PEY0 1-230)": "B1 chain", "assay": "inhibition of GSH-CDNB conjugation by the recombinant enzyme (residual activity at […])", "format": "biochemical"}, "[2]": {"target": "T1, LdGSTu1", "assay": "steady-state enzyme kinetics of the purified enzyme (Km)", "format": "biochemical"}, "[3]": {"target": "T1, LdGSTu1", "assay": "inhibition of GSH-CDNB conjugation by the recombinant enzyme (residual activity […] at […], […] at […])", "format": "biochemical"}, "[4]": {"substrate": "CC(=O)Oc1ccc([N+](=O)[O-])cc1", "assay": "steady-state enzyme kinetics of the purified enzyme (Km)", "format": "biochemical, Leptinotarsa decemlineata", "conditions": "GSH"}}, "data": [{"molecule": "CN1COCN(Cc2cnc(Cl)s2)/C1=N\\[N+](=O)[O-]", "note": "[thiamethoxam]", "values": [{"measurement": "%", "setting": "[1]", "value": "72.3% residual activity at 5 mM"}]}, {"molecule": "CCOP(=S)(OCC)Oc1cc(C)nc(C(C)C)n1", "note": "[diazinon]", "values": [{"measurement": "%", "setting": "[1]", "value": "75.3% residual activity at 5 mM"}]}, {"molecule": "O=[N+]([O-])c1ccc(Cl)c([N+](=O)[O-])c1", "note": "[CDNB, 1-chloro-2,4-dinitrobenzene]", "values": [{"measurement": "Km", "setting": "[2]", "value": "542 ± 88", "unit": "µM"}]}, {"molecule": "O=[N+]([O-])NC1=NCCN1Cc1ccc(Cl)nc1", "note": "[imidacloprid]", "values": [{"measurement": "%", "setting": "[1]", "value": "66.4% residual activity at 5 mM"}]}, {"molecule": "C/C(=N\\C#N)N(C)Cc1ccc(Cl)nc1", "note": "[acetamiprid]", "values": [{"measurement": "%", "setting": "[1]", "value": "39.1% residual activity at 5 mM"}]}, {"molecule": "C=C(CC)C(=O)c1ccc(OCC(=O)O)c(Cl)c1Cl", "note": "[EA, ethacrynic acid]", "values": [{"measurement": "%", "setting": "[3]", "value": "49.6% residual activity at 200 µM"}]}, {"molecule": "CCOP(=S)(OCC)Oc1nc(Cl)c(Cl)cc1Cl", "note": "[chlorpyrifos]", "values": [{"measurement": "%", "setting": "[1]", "value": "70.5% residual activity at 5 mM"}]}, {"molecule": "B1", "values": [{"measurement": "Km", "setting": "[4]", "value": "1830 ± 572", "unit": "µM"}, {"measurement": "Vmax", "setting": "[4]", "value": 13.5, "unit": "µM/min"}, {"measurement": "kcat", "setting": "[4]", "value": "0.128 ± 0.0202", "unit": "s⁻¹"}, {"measurement": "kcat/Km", "setting": "[4]", "value": 70, "unit": "M⁻¹ s⁻¹"}]}]}
